Assay results: patent US20090036387A1, “NOVEL CHEMICAL ENTITIES AFFECTING NEUROBLASTOMA TUMOR-INITIATING CELLS” (The Hospital for Sick Children, priority 2005, published 2009)
Where a name gives a salt, the structure may show the parent alone. Read-outs that look alike come from different tables or passages of the source.

Tested on: NB12 tumor-initiating cells
Assay: IC50 determination, Alamar Blue cell survival/growth assay
Format: cell-based, human
Description: FIG. 4A-4E, according to one embodiment of the invention, presents the IC50 values that were determined for the 64 selected candidate compounds. […] Tumor-initiating cells and normal cells were treated with 10 serial dilutions of compounds (5 μM to 9 nM). […] (FS90=normal cells; NB12=tumor-initiating cells).
FIG. 6A-6FF, according to one embodiment of the invention, presents IC50 values for 32 selected compounds from the LOPAC and Prestwick collections. Tumor-initiating cells (NB12) and normal cells (FS90) were treated with 10 serial dilutions of compounds ranging from 5 μM to 9 nM. Cell survival/growth was assayed using Alamar Blue and the percentage of control Alamar Blue signal was plotted versus log[compound] nM. IC50 values for NB12 are given above each plot.
FIG. 7A-7FF, according to one embodiment of the invention, represents IC50 values determined for 32 selected compounds from the LOPAC, Prestwick, and Spectrum collections. Tumor-initiating cells (NB12) and normal cells (FS90) were treated with 10 serial dilutions of compounds ranging from 5 μM to 9 nM. Cell survival/growth was assayed using Alamar Blue and the percentage of control Alamar Blue signal was plotted versus log[compound] nM (FS90 in dashed line, NB12 in bolded line). IC50 values for NB12 and FS90 are given beside each plot.
To identify compounds that suppress the growth and survival of neuroblastoma (NB) tumor-initiating cells and not nontransformed normal cells (SKPs), a cell-based assay was established and used in which NB tumor-initiating cells from a multiple relapse NB patient (NB12, passage 6-17) and normal SKPs (FS90, passage 2-5) were tested in parallel to detect specific alterations of cell viability/proliferation. For each cell type, cells were passaged 5 days prior to screening. Three thousand (3000) cells in 100 µL SKPs growth media (B27, bFGF, EGF, P/S, fungizone in DMEM:F12 with 50% hFS conditioned media) were robotically plated in uncoated 96 well plates and treated with test compound for 30 hours, prior to a 24 hour incubation in the presence of Alamar Blue and subsequent fluorometric reading.
Thirty-two (32) compounds were selected for IC50 determinations using FS90, FS105, and NB12. IC50 for the remaining compounds of interest will be tested at a later date (in combination with hits from additional libraries).

[1] = Homo sapiens, NB12, 10 serial dilutions 5 μM to 9 nM, Alamar Blue, read-out: NB12 IC50
[2] = Homo sapiens, read-out: NB12 IC50 (nM)
[3] = NB12, 10 serial dilutions 5 μM to 9 nM, Alamar Blue, read-out: NB12 IC50

Q: With `CS(=O)(=O)CCCCN=C=S` [ERYSOLIN] as the compound, how does the IC50 [1] read?
A: 3280 nM

Q: `C[C@H]1O[C@@H](O[C@H]2[C@@H](O)C[C@H](O[C@H]3[C@@H](O)C[C@H](O[C@H]4CC[C@@]5(C)[C@H](CC[C@@H]6[C@@H]5C[C@@H](O)[C@]5(C)[C@@H](C7=CC(=O)OC7)CC[C@]65O)C4)O[C@@H]3C)O[C@@H]2C)C[C@H](O)[C@@H]1O` [Digoxin] was tested. Which IC50 [2] did it give?
A: 542 nM

Q: `CC[N+](CC)(CC)CCOc1ccc(/C=C/c2ccccc2)cc1` [MG 624] was tested. Which IC50 [1] did it give?
A: 848 nM

Q: With `CC[C@@]1(O)C(=O)OCc2c1cc1n(c2=O)Cc2cc3ccccc3nc2-1` [Camptothecine (S.+)] as the compound, how does the IC50 [3] read?
A: 183 nM

Q: `CC[C@@]1(O)C[C@H](O[C@H]2C[C@H](N(C)C)[C@H](O)[C@H](C)O2)c2c(cc3c(c2O)C(=O)c2c(O)cccc2C3=O)[C@H]1C(=O)OC` [AKLAVINE HYDROCHLORIDE] was tested. Which IC50 [1] did it give?
A: 778 nM

Q: `CC(C)CCC[C@@H](C)[C@H]1CC[C@H]2[C@@H]3C[C@@H](O)[C@@]4(O)C[C@@H](O)CC[C@]4(C)[C@H]3CC[C@]12C` [CHOLESTAN-3beta.5alpha.6beta-TRIOL] was tested. Which IC50 [3] did it give?
A: 2410 nM

Q: For Dequalinium analog. C-14 linker, which IC50 [3] is on record?
A: 1110 nM

Q: For `CCN(CC)CCCC(C)Nc1c2ccc(Cl)cc2nc2ccc(OC)cc12` (centres unmarked) [Quinacrine dihydrochloride], which IC50 [1] is on record?
A: 2560 nM

Q: For `O=C1c2c(O)ccc(O)c2C(=O)c2c(NCCNCCO)ccc(NCCNCCO)c21` [MITOXANTHRONE HYDROCHLORIDE], which IC50 [1] is on record?
A: 60.5 nM

Q: How did the IC50 [1] turn out when `N=c1ccn2c(n1)O[C@H]1[C@H](O)[C@@H](CO)O[C@H]12` [Ancitabine hydrochloride] was run?
A: 520 nM

Q: Which IC50 [3] does the source give for `Nc1nc(O)c2[nH]nnc2n1` [Azaguanine-8] here?
A: 331 nM

Q: Which IC50 [3] does the source give for `COc1cc([C@@H]2c3cc4c(c(O)c3C[C@H]3COC(=O)[C@@H]32)OCO4)cc(OC)c1OC` [beta-PELTATIN] here?
A: 1950 nM

Q: Which IC50 [1] does the source give for `COc1cc([C@@H]2c3cc4c(cc3[C@@H](O[C@@H]3O[C@@H]5CO[C@@H](C)O[C@H]5[C@H](O)[C@H]3O)[C@H]3COC(=O)[C@H]23)OCO4)cc(OC)c1O` [Etoposide] here?
A: 694 nM

Q: For `CC(=O)[C@]1(O)Cc2c(O)c3c(c(O)c2[C@@H](O[C@H]2C[C@H](N)[C@H](O)[C@H](C)O2)C1)C(=O)c1ccccc1C3=O` [Idarubicin], which IC50 [1] is on record?
A: 204 nM

Q: With `CO[C@H]1C=C[C@@]23c4cc5c(cc4CN(C[C@@H]2O)[C@H]3C1)OCO5` [CRINAMINE] as the compound, how does the IC50 [3] read?
A: 1740 nM

Q: `C[C@@H]1O[C@@H](O[C@H]2C[C@@H](O)[C@]3(CO)[C@H]4[C@H](O)C[C@]5(C)[C@@H](C6=CC(=O)OC6)CC[C@]5(O)[C@@H]4CC[C@]3(O)C2)[C@H](O)[C@H](O)[C@H]1O` [Ouabain] was tested. Which IC50 [1] did it give?
A: 123 nM

Q: `C[C@@H]1O[C@@H](O[C@H]2CC[C@]3(C=O)[C@H]4CC[C@]5(C)[C@@H](C6=CC(=O)OC6)CC[C@]5(O)[C@@H]4CC[C@]3(O)C2)[C@H](O)[C@H](O)[C@H]1O` [CONVALLATOXIN] was tested. Which IC50 [1] did it give?
A: 73.2 nM

Q: `COc1cc([C@@H]2c3cc4c(cc3[C@@H](O[C@@H]3O[C@@H]5CO[C@@H](c6cccs6)O[C@H]5[C@H](O)[C@H]3O)[C@H]3COC(=O)[C@H]23)OCO4)cc(OC)c1O` [TENIPOSIDE] was tested. Which IC50 [1] did it give?
A: 706 nM

Q: `CC(C)/N=c1\cc2n(-c3ccc(Cl)cc3)c3ccccc3nc-2cc1Nc1ccc(Cl)cc1` [Clofazimine] was tested. Which IC50 [1] did it give?
A: 1420 nM

Q: `Cc1cc(N)c2ccccc2[n+]1CCCCCCCCCC[n+]1c(C)cc(N)c2ccccc21` [Dequalinium dichloride] was tested. Which IC50 [1] did it give?
A: 3620 nM

Q: `COc1cc([C@@H]2c3cc4c(cc3[C@H](O)[C@H]3COC(=O)[C@H]23)OCO4)cc(OC)c1OC` [Podophyllotoxin] was tested. Which IC50 [1] did it give?
A: 135 nM

Q: Which IC50 [1] does the source give for `CO[C@H]1[C@H](O)[C@H](O[C@H]2CC[C@@]3(C=O)[C@H](CC[C@@H]4[C@@H]3CC[C@]3(C)[C@@H](C5=CC(=O)OC5)CC[C@]43O)C2)O[C@@H](C)[C@@H]1O` [PERUVOSIDE] here?
A: 222 nM

Q: For `CC(C)=CCC[C@]1(C)C=Cc2c(O)c3c(c(CC=C(C)C)c2O1)O[C@]12C(=C[C@@H]4C[C@H]1C(C)(C)O[C@@]2(C/C=C(/C)C(=O)O)C4=O)C3=O` [GAMBOGIC ACID], which IC50 [1] is on record?
A: 1700 nM

Q: How did the IC50 [1] turn out when `CCN(CC)Cc1cc(Nc2ccnc3cc(Cl)ccc23)ccc1O` [Amodiaquin dihydrochloride dihydrate] was run?
A: 790 nM

Q: How did the IC50 [1] turn out when `CO[C@H]1C[C@H](O[C@H]2CC[C@]3(C)[C@H]4CC[C@]5(C)[C@@H](C6=CC(=O)OC6)CC[C@]5(O)[C@@H]4CC[C@]3(O)C2)O[C@H](C)[C@H]1O` [PERIPLOCYMARIN] was run?
A: 2700 nM

Q: `COc1cc(NS(C)(=O)=O)ccc1Nc1c2ccccc2nc2ccccc12` [AMSACRINE HYDROCHLORIDE] was tested. Which IC50 [1] did it give?
A: 1210 nM

Q: How did the IC50 [3] turn out when `C[C@@H]1O[C@@H](O[C@H]2C[C@@H](O)[C@]3(CO)[C@H]4[C@H](O)C[C@]5(C)[C@@H]([C@@H]6COC(=O)C6)CC[C@]5(O)[C@@H]4CC[C@]3(O)C2)[C@H](O)[C@H](O)[C@H]1O` [Dihydroouabain] was run?
A: 1540 nM

Q: For `CC[C@]1(O)C[C@H]2CN(CCc3c([nH]c4ccccc34)[C@@](C(=O)OC)(c3cc4c(cc3OC)N(C=O)[C@H]3[C@@](O)(C(=O)OC)[C@H](OC(C)=O)[C@]5(CC)C=CCN6CC[C@]43[C@@H]65)C2)C1` [Vincristine sulfate], which IC50 [1] is on record?
A: 62 nM

Q: Which IC50 [1] does the source give for `C=C1C(=O)O[C@H]2C[C@@H]1C(OC(C)=O)C/C(C)=C/CC/C(C)=C/CC[C@@]2(C)O` (some centres unmarked) [CRASSIN ACETATE] here?
A: 1950 nM

Q: With Vinblastine sulfate salt as the compound, how does the IC50 [3] read?
A: 113 nM

Q: Which IC50 [1] does the source give for `COc1ccc2c(c[n+](C)c3c4cc5c(cc4ccc23)OCO5)c1OC` [Chelerythrine chloride] here?
A: 2550 nM

Q: For `Cc1cc(C2CCCCC2)n(O)c(=O)c1` [CICLOPIROX OLAMINE], which IC50 [1] is on record?
A: 2050 nM

Q: With `C[n+]1cc2c3c(ccc2c2ccc4cc5c(cc4c21)OCO5)OCO3` [Sanguinarine chloride] as the compound, how does the IC50 [2] read?
A: 1800 nM

Q: `Cc1cccc(CN2CCN(C(c3ccccc3)c3ccc(Cl)cc3)CC2)c1` (centres unmarked) [MECLIZINE HYDROCHLORIDE] was tested. Which IC50 [1] did it give?
A: 2540 nM

Q: Which IC50 [1] does the source give for `CC(C)=CCCC1(C)C=Cc2c(O)c3c(c(CC=C(C)C)c2O1)OC12C(=CC4CC1C(C)(C)OC2(C/C=C(/C)C(=O)O)C4O)C3=O` (centres unmarked) [DIHYD[…]] here?
A: 1690 nM
